One experiment deals with A375 melanoma cells. The conditions noted are these: vindesine 12.8 μg per ml.
The test system of experiment [1] is A375 melanoma xenotransplanted-tumours. In words: Chemo-sensitization of xenotransplanted tumours, intratumoral jet injection. The conditions noted are these: twice 150 μg DNA construct, twice 0.5 mg/kg vindesine where indicated. In kind it is in vivo. How it is done: A) In vitro chemo-sensitization assay results. B) Chemo-sensitization of A375 melanoma xenotransplanted tumors.
The intratumoral jet injection was performed using twice 150 μg of the dumbbell-shaped DNA construct and where indicated additionally twice 0.5 mg/kg tumour vindesine.
On the y-axis is the median of the relative tumour volume shown for the indicated days after transfer (x-axis).

Data on 1 compound can be found in US9375435B2, “Use of a DNA expression construct” (MOLOGEN AG, priority 2010, dated 2016).

Excerpt for A375 melanoma cells: In further experiments the effect of TNF-α expression on cell vitality and tumour volume was investigated.

With `CC[C@]1(O)C[C@@H]2CN(CCc3c([nH]c4ccccc34)[C@@](C(=O)OC)(c3cc4c(cc3OC)N(C)[C@H]3[C@@](O)(C(N)=O)[C@H](O)[C@]5(CC)C=CCN6CC[C@]43[C@@H]65)C2)C1` [vindesine], in the experiment with A375 melanoma cells, the relative cell vitality is given as 0.6. In experiment [1], the “median of the relative tumour volume” value was “reduces the average tumour volume”.
